Values of other authors as cited in paper PMC6764291 (Frontiers in Oncology, 2019).

Tests used:
mutant p53 cells = settings: in vitro, considerably higher concentrations than required for wt p53 cell lines; cited from earlier work
From the text: As expected, the two p53 mutated cell lines did n ...

p53 = system: p53; design: method as in PMID 14704432; settings: cited from earlier work

SMILES | effect on mutant p53 cells (mutant p53 cells) | p53-expression (p53)
COc1ccc(C2=N[C@H](c3ccc(Cl)cc3)[C@H](c3ccc(Cl)cc3)N2C(=O)N2CCN(C(C)=O)CC2)c(OC(C)C)c1 [Nutlin-1] | Some effect | 
COc1ccc(C2=N[C@@H](c3ccc(Cl)cc3)[C@@H](c3ccc(Cl)cc3)N2C(=O)N2CCNC(=O)C2)c(OC(C)C)c1 [Nutlin-3] |  | increased p53-expression was directly correlated to increasing concentrations
